We go through nine compounds from patent publication US8071606B2, “Substituted pyrazinone amides useful for activation of glucokinase” (Pfizer Inc., priority 2009, dated 2011).

The target in test [1] is T1, recombinant human glucokinase (Homo sapiens, UniProt P35557).
T1 construct: His tag; made in house; host or cells: E. coli BL21(DE3), pBCGK vector
T1 sequence (P35557 1-465): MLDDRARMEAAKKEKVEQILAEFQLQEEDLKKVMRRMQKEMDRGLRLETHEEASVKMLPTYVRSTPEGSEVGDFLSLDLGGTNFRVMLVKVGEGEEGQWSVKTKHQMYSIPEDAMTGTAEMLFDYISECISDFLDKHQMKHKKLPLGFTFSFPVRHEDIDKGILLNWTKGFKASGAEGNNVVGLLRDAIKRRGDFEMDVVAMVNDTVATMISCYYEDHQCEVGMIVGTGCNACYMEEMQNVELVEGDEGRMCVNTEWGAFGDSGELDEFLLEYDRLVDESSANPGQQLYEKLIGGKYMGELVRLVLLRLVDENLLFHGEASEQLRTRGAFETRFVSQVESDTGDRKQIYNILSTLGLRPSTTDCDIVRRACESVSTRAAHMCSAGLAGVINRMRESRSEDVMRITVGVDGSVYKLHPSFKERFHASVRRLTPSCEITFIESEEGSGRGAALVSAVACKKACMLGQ
The test is described as follows: Assay 2: activator potency in a matrix assay at multiple glucose concentrations (22 compound x 16 glucose concentrations). Type of test: biochemical. Particulars: concentration of compound affording a 50% reduction in the enzyme's Km for glucose, read-out: Intrinsic EC50. As to the method: Representative compounds of this invention were evaluated in biochemical assays (Assay 1 or Assay 2) to characterize their glucokinase activation properties. The recombinant human glucokinase protein utilized in both assays was prepared and purified as described below. • Beta Cell Glucokinase His-Tag Growth and Induction Conditions: BL21(DE3) cells (Invitrogen Corporation, Carlsbad, Calif.) containing pBCGK (C or N His) vector were grown at 37° C. (in 2XYT) until the OD600 was between 0.6-1.0. Expression was induced by addition of isopropylthiogalactoside to a final concentration of 0.1-0.2 mM to the cells which were then incubated overnight at 23° C. The next day, cells were harvested via centrifugation at 5000 rpm for 15 minutes at 4° C. The cell pellet was stored at −80° C. for future purification. • Beta Cell Glucokinase His-Tag Purification Conditions: A Ni-NTA (Quigan, Germantown, Md.) column (15-50 mL) was used for separation. Two buffers were prepared, 1) a lysis/nickel equilibration and wash buffer and 2) a nickel elution buffer. The lysis/equilibration/wash buffer was prepared as such: 25 mM HEPES buffer at pH 7.5, 250 mM NaCl, 20 mM imidazole, and 14 mM […] as final concentrations. The elution buffer was prepared as such: 25 mM HEPES at pH 7.5, 250 mM NaCl, 400 mM imidazole, and 14 mM β-mercaptoethanol as final concentrations. The buffers were each filtered with a 0.22 μm filter prior to use. The cell pellet (1 L culture) was resuspended in 300 mL of the lysis/equilibration buffer. The cells were then lysed (3 times) with a Microfluidics Model 110Y microfluidizer (Microfluidics Corporation, Newton, Mass.). The slurry was centrifuged with a Beckman Coulter Model LE-80K ultracentrifuge (Beckman Coulter, Fullerton, Calif.) at 40,000 rpm for 45 minutes at 4° C. The supernatant was transferred to a chilled flask. A volume of 20 μl was saved for gel analysis. A Pharmacia AKTA (GMI, Inc., Ramsey, Minn.) purification system was used for separation. The prime lines were purged with lysis/equilibration buffer. The Ni-NTA column was equilibrated with 200 mL of the lysis/equilibration buffer at a flow rate of 5 mL/minute. The supernantant was loaded over the column at 4 mL/minute and the flow-through was collected in a flask. The unbound proteins were washed with lysis/equilibration buffer at a flow rate of 5 mL/minute until the ultraviolet reaches baseline. The protein was then eluted from the column with the imidazole elution buffer via imidazole gradient 20 mM to 400 mM over 320 mL. The column was then stripped of any additional protein with 80 mL of the elution buffer. The elution fractions were each 8 mL, for a total yield of 50 samples. Fractions were analyzed by sodium dodecyl sulfate polyacrylamide (SDS-PAGE) and the fractions containing protein of interest were pooled and concentrated to 10 mL using ultrafiltration cell with a 10,000 molecular weight cut-off (MWCO) Millipore membrane (Sigma-Aldrich, St. Louis, Mo.) under nitrogen gas (60 psi). Protein was further purified by size exclusion chromatography (SEC) using a […] (320 mL) (Amersham Pharmacia, Uppsala, Sweden). SEC was equilibrated with 450 mL sizing buffer containing 25 mM HEPES pH 7.0, 50 mM NaCl, and 5 mM dithiothreitol. […] The fractions were analyzed by SDS-PAGE and protein containing fractions were pooled. Concentration was measured using Bradford Assay/BSA Standard. […]

For test [2], the target named is T2, recombinant human glucokinase (beta cell isoform, His-tagged) (Homo sapiens, UniProt P35557).
T2 construct: Full-length glucokinase (beta cell isoform) was His-tagged at the N-terminus; His tag (N); made in house; host or cells: E. coli BL21(DE3), pBCGK vector
T2 sequence (P35557 1-465): T1 sequence (P35557 1-465)
As to the kind of experiment: Assay 1: activator potency and maximum activation at 5 mM glucose (coupled PK/LDH, NADH depletion, A340). Type of test: biochemical. Particulars: for Emax: % Maximum Activation=(Va/Vo−1)×100; for EC50: glucokinase activation, pH 7.1, room temperature. As to the method:
Representative compounds of this invention were evaluated in biochemical assays (Assay 1 or Assay 2) to characterize their glucokinase activation properties. The recombinant human glucokinase protein utilized in both assays was prepared and purified as described below. • Beta Cell Glucokinase His-Tag Growth and Induction Conditions: BL21(DE3) cells (Invitrogen Corporation, Carlsbad, Calif.) containing pBCGK (C or N His) vector were grown at 37° C. (in 2XYT) until the OD600 was between 0.6-1.0. Expression was induced by addition of isopropylthiogalactoside to a final concentration of 0.1-0.2 mM to the cells which were then incubated overnight at 23° C. The next day, cells were harvested via centrifugation at 5000 rpm for 15 minutes at 4° C. The cell pellet was stored at −80° C. for future purification. • Beta Cell Glucokinase His-Tag Purification Conditions: A Ni-NTA (Quigan, Germantown, Md.) column (15-50 mL) was used for separation. Two buffers were prepared, 1) a lysis/nickel equilibration and wash buffer and 2) a nickel elution buffer. The lysis/equilibration/wash buffer was prepared as such: 25 mM HEPES buffer at pH 7.5, 250 mM NaCl, 20 mM imidazole, and 14 mM […] as final concentrations. The elution buffer was prepared as such: 25 mM HEPES at pH 7.5, 250 mM NaCl, 400 mM imidazole, and 14 mM β-mercaptoethanol as final concentrations. The buffers were each filtered with a 0.22 μm filter prior to use. The cell pellet (1 L culture) was resuspended in 300 mL of the lysis/equilibration buffer. The cells were then lysed (3 times) with a Microfluidics Model 110Y microfluidizer (Microfluidics Corporation, Newton, Mass.). The slurry was centrifuged with a Beckman Coulter Model LE-80K ultracentrifuge (Beckman Coulter, Fullerton, Calif.) at 40,000 rpm for 45 minutes at 4° C. The supernatant was transferred to a chilled flask. A volume of 20 μl was saved for gel analysis. A Pharmacia AKTA (GMI, Inc., Ramsey, Minn.) purification system was used for separation. The prime lines were purged with lysis/equilibration buffer. The Ni-NTA column was equilibrated with 200 mL of the lysis/equilibration buffer at a flow rate of 5 mL/minute. The supernantant was loaded over the column at 4 mL/minute and the flow-through was collected in a flask. The unbound proteins were washed with lysis/equilibration buffer at a flow rate of 5 mL/minute until the ultraviolet reaches baseline. The protein was then eluted from the column with the imidazole elution buffer via imidazole gradient 20 mM to 400 mM over 320 mL. The column was then stripped of any additional protein with 80 mL of the elution buffer. The elution fractions were each 8 mL, for a total yield of 50 samples. Fractions were analyzed by sodium dodecyl sulfate polyacrylamide (SDS-PAGE) and the fractions containing protein of interest were pooled and concentrated to 10 mL using ultrafiltration cell with a 10,000 molecular weight cut-off (MWCO) Millipore membrane (Sigma-Aldrich, St. Louis, Mo.) under nitrogen gas (60 psi). Protein was further purified by size exclusion chromatography (SEC) using a […] (320 mL) (Amersham Pharmacia, Uppsala, Sweden). SEC was equilibrated with 450 mL sizing buffer containing 25 mM HEPES pH 7.0, 50 mM NaCl, and 5 mM dithiothreitol. Concentrated protein was then loaded over SEC and elution with 400 mL sizing buffer was performed overnight at 0.5 mL/minute. The elution fractions were 5 mL each. The fractions were analyzed by SDS-PAGE and protein containing fractions were pooled. Concentration was measured using Bradford Assay/BSA Standard. Purified protein was stored in small aliquots at −80° C. Assay 1: Evaluating Activator Potency and Maximum Activation at 5 mM Glucose
Full-length glucokinase (beta cell isoform) was His-tagged at the N-terminus and purified by a Ni column followed by size exclusion chromatography as described above. […]

The term EC50 denotes the concentration that produces a half-maximal response. With `O=C(O)c1ccc(NC(=O)[C@H](CC2CCC2)n2cc(C(F)(F)F)ncc2=O)nc1` [Example 9, (S)-6-(3-cyclobutyl-2-(2-oxo-5-(trifluoromethyl)pyrazin-1(2H)-yl)propanamido)nicotinic acid], the EC50 in test [1] was found to be 1250 nM.
Same read-out and setting: in the case of `CC(C)C[C@@H](C(=O)Nc1ccc(C(=O)O)cn1)n1cc(C(F)(F)F)ncc1=O` [Example 7, (S)-6-(4-methyl-2-(2-oxo-5-(trifluoromethyl)pyrazin-1(2H)-yl)pentanamido)nicotinic acid] it was 3300 nM.
Regarding `O=C(O)Cc1ccc(NC(=O)[C@H](CC2CCCC2)n2cc(C(F)(F)F)ncc2=O)nc1` [Example 8, (S)-2-(6-(3-cyclopentyl-2-(2-oxo-5-(trifluoromethyl)pyrazin-1(2H)-yl)propanamido)pyridin-3-yl)acetic acid], the EC50 in test [1] was 2300 nM.
In general, Emax refers to the maximal effect, on the per cent scale that the assay sets. With `O=C(O)c1ccc(NC(=O)[C@H](CC2CCCC2)n2cc(C(F)(F)F)ncc2=O)nc1` [Example 2, (S)-6-(3-cyclopentyl-2-(2-oxo-5-(trifluoromethyl)pyrazin-1(2H)-yl)propanamido)nicotinic acid], in test [2], the maximal effect (Emax) is 117% and the EC50 was 0.453 µM.
As for `O=C(O)c1ccc(NC(=O)[C@H](CC2CCCCC2)n2cc(C(F)(F)F)ncc2=O)nc1` [Example 5, (S)-6-(3-cyclohexyl-2-(2-oxo-5-(trifluoromethyl)pyrazin-1(2H)-yl)propanamido)nicotinic acid], the EC50 in test [1] fell in the range of 220 to 310 nM.
Take `Cc1ccc(NC(=O)[C@H](CC2CCOCC2)n2cc(C(F)(F)F)ncc2=O)nc1` [Example 1, (S)-N-(5-methylpyridin-2-yl)-2-(2-oxo-5-(trifluoromethyl)pyrazin-1(2H)-yl)-3-(tetrahydro-2H-pyran-4-yl)propanamide]: in test [2], the Emax amounted to 100% and the EC50 is 64 µM.
The corresponding values for `O=C(Nc1cnccn1)[C@H](CC1CCCC1)n1cc(C(F)(F)F)ncc1=O` [Example 3, (S)-3-cyclopentyl-2-(2-oxo-5-(trifluoromethyl)pyrazin-1(2H)-yl)-N-(pyrazin-2-yl)propanamide] are 139 to 143% and 5.6 to 7.1 µM.
`Cc1ccc(NC(=O)[C@H](CC2CCCC2)n2cc(C(F)(F)F)ncc2=O)nc1` [Example 4, (S)-3-cyclopentyl-N-(5-methylpyridin-2-yl)-2-(2-oxo-5-(trifluoromethyl)pyrazin-1(2H)-yl)propanamide]: in test [2], the Emax fell in the range of 99 to 100% and the half-maximal effective concentration (EC50) was 0.27 to 0.37 µM.
In the case of `O=C(O)c1ccc(NC(=O)[C@H](CC2CCOCC2)n2cc(C(F)(F)F)ncc2=O)nc1` [Example 6, (S)-6-(2-(2-oxo-5-(trifluoromethyl)pyrazin-1(2H)-yl)-3-(tetrahydro-2H-pyran-4-yl)propanamido)nicotinic acid], the EC50 in test [1] turned out to be 8900 nM.
